For 5 compounds, MEC results are on record in patent US9624214B2, “Amino-substituted imidazo[1,2-a]pyridinecarboxamides and their use” (BAYER PHARMA AKTIENGESELLSCHAFT, priority 2012, dated 2017).

Structures can show the parent of a compound that is named as a salt.

The assay addresses T1, recombinant guanylate cyclase reporter cell line (Rattus norvegicus, UniProt P19686+P20595).
T1 construct: expressed in transfected cells
T1 sequence (P20595 1-619): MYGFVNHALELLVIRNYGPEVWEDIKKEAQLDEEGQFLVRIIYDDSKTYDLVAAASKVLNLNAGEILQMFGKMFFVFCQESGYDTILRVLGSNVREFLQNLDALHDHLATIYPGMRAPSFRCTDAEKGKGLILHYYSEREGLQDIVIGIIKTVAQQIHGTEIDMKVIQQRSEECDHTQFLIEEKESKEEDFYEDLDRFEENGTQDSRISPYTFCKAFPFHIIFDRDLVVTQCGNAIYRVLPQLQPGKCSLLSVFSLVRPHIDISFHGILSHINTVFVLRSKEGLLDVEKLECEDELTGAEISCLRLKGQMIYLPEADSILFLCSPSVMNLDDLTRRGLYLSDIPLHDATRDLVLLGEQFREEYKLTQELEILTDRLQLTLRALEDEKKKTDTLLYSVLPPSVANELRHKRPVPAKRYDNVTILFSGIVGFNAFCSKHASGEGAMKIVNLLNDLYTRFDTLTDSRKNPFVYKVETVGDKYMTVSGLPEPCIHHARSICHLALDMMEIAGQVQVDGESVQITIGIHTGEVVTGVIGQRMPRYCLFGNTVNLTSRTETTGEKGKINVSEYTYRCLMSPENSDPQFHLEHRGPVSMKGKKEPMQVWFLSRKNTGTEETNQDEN
T1 sequence (P19686 1-690): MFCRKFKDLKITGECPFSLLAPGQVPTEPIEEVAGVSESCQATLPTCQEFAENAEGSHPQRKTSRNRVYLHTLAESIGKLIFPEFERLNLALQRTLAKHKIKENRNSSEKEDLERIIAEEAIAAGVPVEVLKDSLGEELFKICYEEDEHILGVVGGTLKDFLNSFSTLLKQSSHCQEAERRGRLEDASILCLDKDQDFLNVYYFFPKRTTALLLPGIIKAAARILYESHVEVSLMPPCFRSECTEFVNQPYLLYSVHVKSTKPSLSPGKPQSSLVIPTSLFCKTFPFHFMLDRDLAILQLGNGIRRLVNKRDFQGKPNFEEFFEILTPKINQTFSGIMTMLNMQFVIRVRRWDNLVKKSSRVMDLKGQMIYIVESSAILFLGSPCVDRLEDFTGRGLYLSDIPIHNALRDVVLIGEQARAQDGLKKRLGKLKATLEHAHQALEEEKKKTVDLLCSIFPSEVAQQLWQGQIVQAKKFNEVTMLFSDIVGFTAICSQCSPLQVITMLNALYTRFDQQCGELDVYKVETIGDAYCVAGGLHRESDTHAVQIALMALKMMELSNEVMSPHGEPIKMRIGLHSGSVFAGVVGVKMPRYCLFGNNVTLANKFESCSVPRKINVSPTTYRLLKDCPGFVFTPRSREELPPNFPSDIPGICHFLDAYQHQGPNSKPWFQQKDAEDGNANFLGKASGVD
The assay is described as follows: B-2. Action on recombinant guanylate cyclase reporter cell line. It counts as cell-based. Conditions: MEC = minimal effective concentration; in some cases mean values from individual determinations. In a few lines: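 MEC values, meaning the lowest concentration producing a detectable response, were taken from a recombinant cyclase reporter cell assay. Where repeated, individual determinations were averaged.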
Take `NCC(NC(=O)c1cnc2c(OCc3c(F)cccc3F)cccn12)c1ccc(F)c(F)c1` (stereo not drawn) [Example 55, ent-N-[2-amino-1-(3,4-difluorophenyl)ethyl]-8-[(2,6-difluorobenzyl)oxy]imidazo[1,2-a]pyridine-3-carboxamide dihydrochloride]: the MEC was 2.00 µM.

As for `CCCC(C)(N)CNC(=O)c1c(C)nc2c(OCc3c(F)cccc3F)c(F)ccn12` (racemic) [Example 277, rac-N-(2-Amino-2-methylpentyl)-8-[(2,6-difluorobenzyl)oxy]-7-fluoro-2-methylimidazo[1,2-a]-pyridine-3-carboxamide], the MEC stood at 1.00 µM. Take `Cc1nc2c(OCc3c(F)cccc3F)cccn2c1C(=O)NC(CN)COC(C)C` (racemic) [Example 63, rac-N-(1-Amino-3-isopropoxypropan-2-yl)-8-[(2,6-difluorobenzyl)oxy]-2-methylimidazo[1,2-a]-pyridine-3-carboxamide]: the MEC worked out at 0.30 µM. Then `CCCC(C)(N)CNC(=O)c1c(C)nc2c(OCc3c(F)cccc3F)cccn12` (stereo not drawn) [Example 318, ent-N-(2-amino-2-methylpentyl)-8-[(2,6-difluorobenzyl)oxy]-2-methylimidazo[1,2-a]pyridine-3-carboxamide], with 0.30 µM.

`Cc1nc2c(OCc3ccccc3F)cccn2c1C(=O)NC(CN)c1ccc(F)c(F)c1` (stereo not drawn) [Example 98, ent-N-[2-Amino-1-(3,4-difluorophenyl)ethyl]-8-[(2-fluorobenzyl)oxy]-2-methylimidazo[1,2-a]-pyridine-3-carboxamide]: the MEC was found to be 1.00 µM.
